According to EP4094762A1, “TREATMENT OF NEUROLOGICAL INDICATIONS” (UCL Business Ltd, priority 2021, dated 2022):
pIC50: −log10 of the molar value.

Assays:
P2Y1 receptor = molecular target: T1, P2Y1 receptor (Homo sapiens, UniProt P47900); assay: Cell based HTRF assay measuring IP1 accumulation; antagonism of the P2Y1 agonist MRS2365; settings: rounded to nearest whole number; read-out: IC50 IP1
T1 construct: expressed in transfected cells
Protocol: IC50 values were determined using a cell based assay in stably transfected cells overexpressing the P2Y1 receptor. The assay system is a high throughput […] assay measuring accumulation of the intracellular messenger inositol monophosphate (IP1), generated intracellularly following activation of P2Y1.
P2Y1 overexpressing cells were maintained in T175 flasks. The day before the assay, these cells were split and 20µl cell suspension transferred to each well of white 384-well assay plates at a cell density of 0.5x10^6 cells/mL. Plates were pulse centrifuged, then incubated overnight at 37°C / 5% CO2 prior to assay.
On day of assay, medium was removed from cells and replaced with stimulation buffer. […] Positive control antagonist curves with standard compounds were included on each plate. Plates were incubated with antagonists for 1 hour prior to addition of 5nM of the agonist MRS2365, dispensed using a Bravo liquid handler. Following agonist addition, plates were incubated for 60 minutes prior to assay. Both incubations were carried out at 37°C / 5% CO2.
For the assay, IP1 accumulation was quantified using the IPOne kit according to manufacturer's instructions. In short, a standard curve was prepared for IP1 quantification, and cells lysed using kit lysis buffer. Assay reagents were added to the lysates, and incubated for 1 hour at room temperature without spinning or shaking. Plates were analysed on a BMG Pherastar plate reader, and IP1 signal generated in cells interpolated from the standard curve.

[1] = CNS penetration: intravenous cassette pharmacokinetic study, brain and plasma by LC-MS/MS; settings: mouse, intravenous
Protocol: To assess penetration of compounds into the mouse central nervous system, intravenous pharmacokinetic studies were undertaken in C57B16/J mice. […] Compounds were then combined into a single dosing solution and administered together via the intravenous route into 24 mice. Total compound dose administered to each mouse was 2mg/kg. Mice were culled at various times post dosing and brain and plasma collected for bioanalysis. In particular, mice were culled and plasma collected for bioanalysis at 8 time points out to 24 hours post dosing. Brains were also collected for bioanalysis at various time points to assess CNS penetration. 2 hour and 4 hour brain collection was carried out in all studies. Additional time points were collected in selected studies.
For bioanalysis, compounds were prepared in DMSO and aliquoted together to ensure a final concentration of 1mg/mL per compound in DMSO. Analytical standards were prepared from the initial 1mg/mL stock solution of compound, with a 12-point standard curve range from 0.5ng/mL to 2000ng/mL, with independent quality control tests from 1ng/mL to 1000ng/mL run to validate the standards. All standards and QC samples were matrix matched to eliminate possible suppression. Plasma samples were prepared with a 1:10 dilution in plasma. […] Dose solutions were diluted in a control matrix to a relative concentration that fell on the standard curve. Cold acetonitrile containing internal standard was added to all samples, standards, dose samples and QC samples; samples were then centrifuged for 30 minutes at 4000rpm. After centrifugation, supernatant was transferred to a new 96-well plate, diluted with an equal volume of water and mixed thoroughly before LC-MS analysis.
Supernatents were analysed by LC-MS/MS. From the analysis data a response ratio was obtained using the formula Response Ratio = Test Peak Area/Internal Standard Peak Area. From the standard curve, the test peak area was converted to concentration of test compound.
To establish CNS penetration, the ratio of the concentration of each compound in the plasma samples to the brain samples was assessed.

T1 sequence (P47900 whole entry): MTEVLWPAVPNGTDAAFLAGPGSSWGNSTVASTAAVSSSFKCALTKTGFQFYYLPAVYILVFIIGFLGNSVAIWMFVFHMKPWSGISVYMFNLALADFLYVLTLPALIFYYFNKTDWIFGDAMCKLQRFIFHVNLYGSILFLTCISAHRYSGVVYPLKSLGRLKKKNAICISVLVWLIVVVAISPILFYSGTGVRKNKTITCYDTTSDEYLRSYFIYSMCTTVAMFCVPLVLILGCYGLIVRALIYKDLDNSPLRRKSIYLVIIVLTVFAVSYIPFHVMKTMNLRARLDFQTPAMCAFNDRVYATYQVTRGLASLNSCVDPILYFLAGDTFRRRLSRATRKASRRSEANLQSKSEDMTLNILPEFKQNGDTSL

| SMILES | pIC50 (P2Y1 receptor) | CNS penetration (in words) [1] |
| --- | --- | --- |
| Cc1c(Oc2ncccc2NC(=O)Nc2ccc(OC(F)(F)F)cc2)cccc1-c1cccc(C#N)c1 [S27] | 6.29 | – |
| CC(C)(C)c1ccccc1Oc1ncccc1NC(=O)Nc1ccc2c(c1)OC(F)(F)O2 [S6] | 7.12 | – |
| Cc1c(Br)cccc1Oc1ncccc1NC(=O)Nc1ccc(OC(F)(F)F)cc1 [S28] | 6.29 | – |
| O=C(Nc1ccc(OC(F)(F)F)cc1)Nc1cccnc1Oc1cccc(N2CCCCC2)c1 [S31] | 6.22 | – |
| Cc1ccc(C)c(Oc2ncccc2NC(=O)Nc2ccc(OC(F)(F)F)cc2)c1 [S55] | 5.70 | – |
| Cc1c(Oc2ncccc2NC(=O)Nc2ccc(OC(F)(F)F)cc2)cccc1-c1ccccc1 [S7] | 7.00 | – |
| O=C(Nc1ccc(OC(F)(F)F)cc1)Nc1cccnc1Oc1cccc(-c2ccccc2)c1 [S39] | 6.08 | – |
| CC(C)(C)c1ccccc1Oc1ncccc1NC(=O)NCc1ccc(OC(F)(F)F)cc1 [S21] | 6.52 | – |
| CC1(C)CN(c2ccccc2NC(=O)Nc2ccc(OC(F)(F)F)cc2)c2c(O)ccc(-c3ccc(Cl)cc3)c21 [RS1, 1-(2-(4-(4-chlorophenyl)-7-hydroxy-3,3-dimethylindolin-1-yl)phenyl)-3-(4-(trifluoromethoxy)phenyl)urea, reference compound] | – | no apparent CNS penetration |
| CC(C)(C)c1cccc(Oc2ncccc2NC(=O)Nc2ccc(OC(F)(F)F)cc2)c1 [S20] | 6.56 | – |
| O=C(Nc1ccc(OC(F)(F)F)cc1)Nc1cccnc1Oc1cc(O)ccc1Br [S50] | 5.89 | – |
| COc1ccc([C@H](C)NC(=O)Nc2cccnc2Oc2ccccc2C(C)(C)C)cc1 [S62] | 5.61 | – |
| Cc1c(Oc2ncccc2NC(=O)Nc2ccc(OC(F)(F)F)cc2)cccc1N1CC2CC1CO2 (centres unmarked) [S59] | 5.67 | – |
| Cc1c(Oc2ncccc2NC(=O)Nc2ccc(OC(F)(F)F)cc2)cccc1N(C)C [S12] | 6.82 | – |
| Cc1cccc(Oc2ncccc2NC(=O)Nc2ccc(OC(F)(F)F)cc2)c1 [S47] | 5.96 | – |
| CC(C)c1ccc(C(F)F)cc1Oc1ncccc1NC(=O)Nc1ccc(OC(F)(F)F)cc1 [S15] | 6.75 | – |
| N#Cc1cccc(-c2cccc(Oc3ncccc3NC(=O)Nc3ccc(OC(F)(F)F)cc3)c2)c1 [S63] | 5.60 | – |
| Cc1cccc(Oc2ncccc2NC(=O)Nc2ccc(OC(F)(F)F)cc2)c1Br [S24] | 6.40 | – |
| CC(C)c1cccc(C(F)F)c1Oc1ncccc1NC(=O)Nc1ccc(OC(F)(F)F)cc1 [S30] | 6.24 | – |
| CC(C)(C)c1ccccc1Oc1ncccc1NC(=O)NCCc1ccccc1 [S43] | 6.02 | – |
| O=C(Nc1ccc(OC(F)(F)F)cc1F)Nc1cccnc1Oc1ccccc1S(F)(F)(F)(F)F [S14] | 6.76 | – |
| O=C(Nc1ccc(OC(F)(F)F)cc1)Nc1cccnc1Oc1ccccc1Br [S41] | 6.03 | – |
| O=C(Nc1ccc(OC(F)(F)F)cc1)Nc1cccnc1Oc1cccc(Br)c1 [S51] | 5.88 | – |
| O=C(Nc1ccc(OC(F)(F)F)cc1)Nc1cccnc1Oc1cccc(O)c1 [S52] | 5.85 | – |
| CC(C)(C)c1ccccc1Oc1ncccc1NC(=O)NCCCc1ccccc1 [S34] | 6.19 | – |

Further lines, with some results ahead:

| pIC50 (P2Y1 receptor) | SMILES | CNS penetration (in words) [1] |
| --- | --- | --- |
| 5.47 | C=Cc1cnc(Oc2ccccc2C)c(NC(=O)Nc2ccc(OC(F)(F)F)cc2)c1 [S67] | – |
| 5.31 | Cc1ccccc1Oc1ncc(Br)cc1NC(=O)Nc1ccc(OC(F)(F)F)cc1 [S72] | – |
| 5.10 | O=C(Nc1ccc(F)cc1F)Nc1cccnc1Oc1ccc(C(F)(F)F)cc1 [S80] | – |
| 5.15 | COc1ccc(Br)c(Oc2ncccc2NC(=O)Nc2ccc(OC(F)(F)F)cc2)c1 [S78] | – |
| 5.15 | CC(C)(C)c1ccccc1Oc1ncccc1NC(=O)NC1CC2(C1)CN(CC(F)(F)F)C2 [S76] | – |
| 5.34 | Cc1ccccc1COc1ncccc1NC(=O)Nc1ccc(OC(F)(F)F)cc1 [S70] | – |
| 5.36 | Cc1ccccc1Oc1ncc(C(F)(F)F)cc1NC(=O)Nc1ccc(OC(F)(F)F)cc1 [S69] | – |
| 5.12 | CC(C)(C)c1ccccc1Oc1ncc(-c2ccccc2)cc1NC(=O)Nc1ccc(OC(F)(F)F)cc1 [S79] | – |
| 5.44 | C#Cc1cnc(Oc2ccccc2C)c(NC(=O)Nc2ccc(OC(F)(F)F)cc2)c1 [S68] | – |
| 5.31 | N#Cc1ccc(-c2cccc(Oc3ncccc3NC(=O)Nc3ccc(OC(F)(F)F)cc3)c2)cc1 [S71] | – |
| 5.02 | Cc1c(Oc2ncccc2NC(=O)Nc2ccc(OC(F)(F)F)cc2)cccc1-c1cccc(CN(C)C)c1 [S85] | – |
| 5.15 | CC(C)(O)c1ccccc1Oc1ncccc1NC(=O)Nc1ccc(OC(F)(F)F)cc1 [S77] | – |
| 5.01 | CCOC(=O)c1nnc(NC(=O)Nc2cccnc2Oc2ccccc2C(C)(C)C)s1 [S86] | – |
